Test results taken from patent US11813326B2, “Cell-associating immunologic adjuvants for treatment enhancement” (ACADEMIA SINICA, priority 2018, dated 2023).

How the values were obtained:
[1] = In vivo immune potentiation after footpad injection (lymph node IFN-β, serum TNF-α); settings: after footpad administration, mice
Method: Immune potentiation by the cd-GMP nanoparticles was further compared to free cd-GMP in vivo in mice. 48 hours following footpad injections, the draining popliteal lymph nodes were collected for IFN-β quantification. […] In addition, the systemic level of TNF-α, an indicator of reactogenicity, was also monitored following the footpad administration of free cd-GMP and cd-GMP nanoparticles.

[2] = Encapsulation efficiency of thin-shell polymeric nanoparticles; format: physicochemical; settings: for encapsulation efficiency: cargo in thin-shell hollow PLGA nanoparticles
B16-OVA tumors [3] = test: Tumor treatment efficacy of adjuvant plus cisplatin, B16-OVA subcutaneous model; format: in vivo, B6 mice; settings: intra-tumoral treatment
Method: To study the in vivo efficiency of the treatment modality, B6 mice were inoculated subcutaneously with B16-OVA tumors. When the tumors appeared palpable, they were pre-treated with free cGAMP or cGAMP-loaded nanoparticles prior to chemotherapy by cisplatin (CTTP). 24 hours following intra-tumoral adjuvant administration, the mice were given an intra-tumoral cisplatin injection to induce cell death (FIG. 9(a)). These two groups are designated cGAMP+CTTP and NP+CTTP to differentiate the use of free cGAMP and cGAMP-loaded nanoparticles, respectively. For controls, tumor-bearing mice receiving no treatment (placebo), cistplatin only (CTTP only) and cGAMP-loaded nanoparticles only (NP only) were also prepared. For cGAMP administration, 2.5 μg of the adjuvant was administered in 50 μL of solution. For cisplatin administration, 235 μg of the chemodrug was administered in 100 μL of solution. Following the different treatments, the tumor volumes were monitored over time. […] In contrast, no other group had any tumor with complete regression (FIG. 9(b), (c)). […] With the tumor-free surviving mice from the NP+CTTP group, 4 of them were re-challenged with B16-OVA cells on day 60 and compared to animals that had no prior tumor challenge and treatment.

B16-OVA tumors [4] = test: Adjuvant retention in tumors and cancer cells after intratumoral injection; format: in vivo, B6 mice; settings: intra-tumoral, 24 hours
Method: To validate cell-associating effect of the nanoparticle adjuvant formulation, B6 mice were inoculated subcutaneously with B16-OVA tumors. Nanoparticle-mediated adjuvant retention with the B16 cells was validated using whole body imaging, flow cytometric analysis, and fluorescence microscopy. Dye-labelled STING agonist (2′-[DY-547]-AHC-c-diGMP) was administered in its free form and nanoparticle form intra-tumorally and examined after 24 hours.

HeLa cells = test: Association of cGAMP adjuvant with HeLa cells and cisplatin-induced debris (confocal, FACS); format: cell-based

Compound: Nc1nc2c(ncn2[C@@H]2O[C@@H]3COP(=O)(O)O[C@H]4[C@@H](O)[C@H](n5cnc6c(=O)[nH]c(N)nc65)O[C@@H]4COP(=O)(O)O[C@H]3[C@H]2O)c(=O)[nH]1 [cyclic di-GMP]
- serum level of TNF-α (indicator of reactogenicity) [1]: elevated level
- encapsulation efficiency [2]: 37%
- encapsulation efficiency ([2]; listed as cd-GMP): about 40%
- cargo molecules per nanoparticle ([2]; loading concentration 8 mM DNA, 50 mg/mL BSA, cd-GMP at about 40% efficiency): approximately 2,000

Compound: N.N.[Cl][Pt][Cl] [CTTP only, cisplatin]
- tumor regression (B16-OVA tumors [3]): neither CTTP only nor NP only treatment induced tumor regression

Compound: 2′-[DY-547]-AHC-c-diGMP [free adjuvant]
- adjuvant association within the cancer cells (B16-OVA tumors [4]; flow cytometry and confocal microscopy of extracted cells): little adjuvant retention
- adjuvant retention inside the tumor (B16-OVA tumors [4]; whole body imaging): little adjuvant retention

Compound: Nc1nc2c(ncn2[C@@H]2O[C@@H]3COP(=O)(O)O[C@H]4[C@@H](O)[C@H](n5cnc6c(N)ncnc65)O[C@@H]4COP(=O)(O)O[C@@H]2[C@@H]3O)c(=O)[nH]1 [free cGAMP, 2′3′-cGAMP]
- capacity to associate with the cells (HeLa cells): little capacity

Compound: dye-labelled BSA: dye-labelled bovine serum albumin cargo
- encapsulation efficiency [2]: 35%
